# Reference: patent US9248928B2, “Methods of manufacturing contact lenses for delivery of beneficial agents” (CooperVision International Holding Company, LP, priority 2012, dated 2016)
# Counter-ions that a name gives are not always drawn. Like-named read-outs stand apart in the source and are kept apart here.
# How the values were obtained:
# [1] = for % of the epinastine taken up by the lens that released (extracted): PBS
# Method: (§1) As used herein, a cationic agent is considered to be autoclave-stable in a given package and packaging solution if there is less than 2% degradation of the cationic agent after it is autoclaved two times in its intended package and packaging solution without a lens present, wherein the autoclave conditions used are 120° C. for 30 minutes at about 17 psi. A reference to 2× or 3× autoclave of a package is intended to include a step of allowing the package to cool to room temperature before and after the 2nd, and if applicable, 3rd autoclave treatments. The amount of degradation is determined using an HPLC method appropriate for the cationic agent being tested. Alternatively or additionally, a cationic agent is considered autoclave-stable in a given packaging solution if the percentage of cationic agent that can be extracted from the lens after 2× autoclave is more than 95% of the percentage of cationic agent that can be extracted from a non-autoclaved lens packaged in the same packaging solution and kept at room temperature for 24 hours, where the extraction method used is substantially as described in Example 4, or an equivalent method. The percentage of cationic agent extracted from the autoclaved (test) and non-autoclaved (control) lenses is determined relative to the amount of cationic agent taken up by the test and control lenses, respectfully. Thus, for example, a control lens may take up 100 μg of a cationic agent from a packaging solution after 24 hours at room temperature and 97 μg (i.e. 97%) of the cationic agent can be extracted from the lens. If the corresponding test (2× autoclaved) lens takes up 120 μg of the cationic agent from the packaging solution, but only 108 μg (i.e. 90%) of the cationic agent is extracted using the same extraction method as for the control lens, then there is considered to be a 7% difference between the amount cationic agent extracted from control and test lenses.
# The packaged lenses were either autoclaved once or twice for 20 minutes at 120° C. and then kept at room temperature overnight, or kept at room temperature overnight without autoclaving. 1.2 ml PBS comprising 200 μg/ml epinastine HCL was autoclaved once or twice in a glass vial without a lens (autoclave control solution).
# Each lens was blotted dry with lint-free paper, and placed in a vial containing 10 ml of an extraction medium consisting of 60 parts of 0.3% triethylamine in deionized (pH adjusted to 4.0 using phosphoric acid) and 40 parts methanol. The vials were sonicated for 30 minutes at room temperature. The lens were removed from the extraction solution and transferred to individual vials containing 5 ml of fresh extraction medium and sonicated again for 30 minutes. For each lens, the extraction media was combined to obtain 15 ml extraction medium for each lens and the amount of epinastine extracted from each lens was measured by HPLC.
# The study was repeated using silicone hydrogel contact lenses prepared according to Example 1 and packaged in TRIS buffer (described above) comprising 150 μg/ml epinastine. The lenses were autoclaved 0-3 times each.
# [2] = Autoclave stability of cationic agents in packaging solution
# Method: as §1
# Both εPLL and epinastine have primary amine groups, whereas olopatadine and ketotifen have none. […] TRIS buffer drops in pH with increased temperature, down to a pH of about 4.3 during autoclave. […] Thus, in one example, the packaging solution used in the method of manufacturing the contact lenses described herein is temperature-sensitive. By temperature-sensitive, it is meant that the pH of the packaging solution drops by at least one (e.g a drop from pH 7.5 to pH 6.5) during autoclave at 120° C. for 30 minutes. In specific examples, the pH of the temperature-sensitive packaging solution drops during autoclave by at least 1.5, 2.0, or 2.5. Exemplary temperature-sensitive buffers include {[tris(hydroxymethyl)methyl]amino}propanesulfonic acid (TAPS), N,N-bis(21-hydroxyethyl)glycine (Bicine), tris(hycroxymethyl)methylamine (TRIS), N-tris(hydroxymethyl)methylglycine (Tricine), {[tris(hydroxymethyl)methyl]amino}ethanesulfonic acid (TES), 3-(N-morpholino)propanesulfonic acid (MOPS), and the like. […] In one such example, the packaging solution comprises a TRIS buffer. In a further example, the cationic agent comprises a primary amine. In yet a further example, the cationic agent is epinastine or εPLL and the packaging solution comprises a TRIS buffer.
# [3] = Autoclave stability of εPLL in PBS or TRIS buffered saline by HPLC; type: physicochemical; conditions: 500 ppm εPLL, no lens
# Method: […] The samples were tested by HPLC at a sufficient resolution to achieve a discernable peak for each molecular weight fraction of the εPLL.
# [4] = Autoclave # 0, silicone hydrogel lens, TRIS buffer with 150 μg/ml epinastine
# [5] = Autoclave # 1x, silicone hydrogel lens, TRIS buffer with 150 μg/ml epinastine
# [6] = Autoclave # 2x, silicone hydrogel lens, TRIS buffer with 150 μg/ml epinastine
# [7] = Autoclave # 3x, silicone hydrogel lens, TRIS buffer with 150 μg/ml epinastine
# [8] = Ocufilcon D lens, Autoclaved, PBS with 200 μg/ml epinastine HCl
# [9] = Ocufilcon D lens, Non-Autoclaved, PBS with 200 μg/ml epinastine HCl
# [10] = Silicone hydrogel lens (2x autoclave), PBS with 200 μg/ml epinastine HCl
# [11] = Silicone hydrogel lens, Autoclaved, PBS with 200 μg/ml epinastine HCl
# [12] = Silicone hydrogel lens, Non-Autoclaved, PBS with 200 μg/ml epinastine HCl
# [13] = TBS, 9 autoclaves (so in the source)
compound,measurement,setting,value
NC1=NCC2c3ccccc3Cc3ccccc3N12 (stereo not drawn) [epinastine],% Δ,[1]; [4],0.2%
same,Extracted Amt.,[1]; [4],148.1 µg
same,Δ,[1]; [4],0.3 µg
same,% Δ,[1]; [5],1.3%
same,Extracted Amt.,[1]; [5],148.6 µg
same,Δ,[1]; [5],1.9 µg
same,% Δ,[1]; [6],1.3%
same,Extracted Amt.,[1]; [6],145.4 µg
same,Δ,[1]; [6],1.9 µg
same,% Δ,[1]; [7],3.0%
same,Extracted Amt.,[1]; [7],85.9 µg
same,Δ,[1]; [7],2.6 µg
same,% Δ,[1]; [8],7%
same,Extr. Amt.,[1]; [8],240.4 µg
same,Δ (uptake minus extracted),[1]; [8],18.5 µg
same,% Δ,[1]; [9],2%
same,Extr. Amt.,[1]; [9],243.5 µg
same,Δ (uptake minus extracted),[1]; [9],5.6 µg
same,% Δ,[1]; [10],18%
same,Extr. Amt.,[1]; [10],163.4 µg
same,Δ (uptake minus extracted),[1]; [10],36.3 µg
same,% Δ,[1]; [11],10%
same,Extr. Amt.,[1]; [11],184.5 µg
same,Δ (uptake minus extracted),[1]; [11],20.1 µg
same,% Δ,[1]; [12],1%
same,Extr. Amt.,[1]; [12],181.7 µg
same,Δ (uptake minus extracted),[1]; [12],1.3 µg
same,% of the epinastine taken up by the lens that released (extracted),[1]; autoclaved ocufilcon D lens,about 93%
same,% of the epinastine taken up by the lens that released (extracted),[1]; autoclaved silicone hydrogel lens,~90%
same,% of the epinastine taken up by the lens that released (extracted),[1]; non-autoclaved control ocufilcon D lens,98%
same,% of the epinastine taken up by the lens that released (extracted),[1]; non-autoclaved control silicone hydrogel lens,99%
same,% of the epinastine taken up by the lens that released (extracted),[1]; silicone hydrogel lens autoclaved a second time,about 82%
same,autoclave stability,[2]; in PBS,not autoclave-stable
same,autoclave stability,[2]; in TRIS buffer,autoclave-stable
CN1CCC(=C2c3ccccc3CC(=O)c3sccc32)CC1 [ketotifen fumarate],autoclave stability,[2],autoclave-stable
CN(C)CC/C=C1/c2ccccc2COc2ccc(CC(=O)O)cc21 [olopatadine HCl],autoclave stability,[2],autoclave-stable
epsilon poly-1-lysine [εPLL],Total # peaks,"[3]; PBS, 0 autoclaves",23
same,Total peak area,"[3]; PBS, 0 autoclaves",16005557
same,% Area (relative to non-autoclaved),"[3]; PBS, 2 autoclaves",91%
same,Total # peaks,"[3]; PBS, 2 autoclaves",28
same,Total peak area,"[3]; PBS, 2 autoclaves",14566887
same,% Area (relative to non-autoclaved),"[3]; PBS, 4 autoclaves",90%
same,Total # peaks,"[3]; PBS, 4 autoclaves",28
same,Total peak area,"[3]; PBS, 4 autoclaves",14468122
same,% Area (relative to non-autoclaved),"[3]; TBS, 2 autoclaves",99%
same,Total # peaks,"[3]; TBS, 2 autoclaves",27
same,Total peak area,"[3]; TBS, 2 autoclaves",14636372
same,% Area (relative to non-autoclaved),"[3]; TBS, 4 autoclaves",98%
same,Total # peaks,"[3]; TBS, 4 autoclaves",27
same,Total peak area,"[3]; TBS, 4 autoclaves",14476291
same,Total # peaks,[3]; [13],23
same,Total peak area,[3]; [13],14800289
same,autoclave stability,[2]; in PBS,not autoclave-stable
same,autoclave stability,[2]; in TRIS buffer,autoclave-stable
